Test results reported in patent US11905282B1, “1-cyclopropyl-7-(4-((5-(2,4-dichlorobenzylideneamino)-2-thioxo-1,3,4-thiadiazol-3(2H)-yl)methyl)piperazin-1-yl)-6-fluoro-4-oxo-1,4-dihydroquinoline-3-carboxylic acid as an anti-inflammatory compound” (KING FAISAL UNIVERSITY, priority 2023, dated 2024).
Read-outs that look alike come from different tables or passages of the source.

Target: Bovine Serum Albumin (Bos taurus, UniProt P02769)
Assay: Bovine Serum Albumin Assay (BSA), inhibition of heat-induced protein denaturation (in vitro anti-inflammatory activity)
Type: biochemical
Description: Bovine Serum Albumin Assay (BSA) In vitro-inflammatory activities of the tested samples were determined using a modified method of the BSA assay reported by Williams et al. BSA solution (0.4%, w/v) was prepared in Tris Buffered Saline. The pH was adjusted to 6.4 with glacial acetic acid. Different dilutions of 20, 40, 60, 80, and 100 μg/mL of 1-cyclopropyl-6-fluoro-4-oxo-7-(4-((5-oxo-2-phenyl-4-(quinolin-2-ylmethylene)-4,5-dihydro-1H-imidazol-1-yl)methyl)piperazin-1-yl)-1,4-dihydroquinoline-3-carboxylic acid in the stock solutions were added to test tubes containing 1 mL of 0.4%, w/v BSA buffer solution. Both negative (solvent) and positive (aspirin) controls were assayed in a similar manner. The solutions were then heated in a water bath at 72° C. for 10 minutes and cooled for 20 minutes under laboratory conditions. The turbidity of the solutions (level of protein precipitation) was measured at 660 nm in Spectrophotometer (V-770 UV-Visible/NIR Spectrophotometer). The percentage inhibition of precipitation (protein denaturation) was determined relative to the negative control using the following equation: [formula] [formula]

[1] = read-out: percentage inhibition of precipitation (protein denaturation)

Bovine Serum Albumin, sequence (P02769 25-607): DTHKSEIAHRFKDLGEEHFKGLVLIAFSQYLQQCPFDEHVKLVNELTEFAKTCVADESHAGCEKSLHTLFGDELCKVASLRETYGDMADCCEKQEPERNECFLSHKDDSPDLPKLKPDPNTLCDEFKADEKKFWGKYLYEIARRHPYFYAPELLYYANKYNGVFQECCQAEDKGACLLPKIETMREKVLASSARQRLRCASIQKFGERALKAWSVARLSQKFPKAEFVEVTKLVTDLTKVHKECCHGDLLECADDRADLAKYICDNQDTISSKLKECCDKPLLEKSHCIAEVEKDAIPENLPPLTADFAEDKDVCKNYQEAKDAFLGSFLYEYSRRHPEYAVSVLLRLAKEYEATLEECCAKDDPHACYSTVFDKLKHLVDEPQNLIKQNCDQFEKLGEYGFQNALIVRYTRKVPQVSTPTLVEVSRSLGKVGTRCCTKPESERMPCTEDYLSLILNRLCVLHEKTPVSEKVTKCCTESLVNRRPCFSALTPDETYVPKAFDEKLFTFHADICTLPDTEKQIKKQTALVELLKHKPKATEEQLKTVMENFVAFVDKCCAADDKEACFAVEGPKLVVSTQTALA

SMILES | inhibition at 100 µg/mL (concentration 100 μg/ml, 72° C. 10 minutes, turbidity at 660 nm, read-out: percentage inhibition of precipitation (protein denaturation)) [%] | in vitro anti-inflammatory effect (BSA assay, result in words) | inhibition at 20 µg/mL [1] [%] | inhibition at 40 µg/mL [1] [%] | inhibition at 60 µg/mL [1] [%] | inhibition at 80 µg/mL [1] [%] | inhibition at 100 µg/mL [1] [%]
CC(=O)Oc1ccccc1C(=O)O [P.C, aspirin, reference compound] | 90.7 | – | – | – | – | – | –
O=C(O)c1cn(C2CC2)c2cc(N3CCN(Cn4nc(/N=C/c5ccc(Cl)cc5Cl)sc4=S)CC3)c(F)cc2c1=O [Present compound, 1-cyclopropyl-7-(4-((5-(2,4-dichlorobenzylideneamino)-2-thioxo-1,3,4-thiadiazol-3(2H)-yl)methyl)piperazin-1-yl)-6-fluoro-4-oxo-1,4-dihydroquinoline-3-carboxylic acid] | – | considerable anti-inflammatory effect | 68.2 | 75.7 | 79.1 | 83.8 | 87.6
